Assays:
Format in all cases: in vivo
Zea mays [1] = assay: Crop compatibility post-emergence (greenhouse pot trial)
In short: (§1)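 Compatibility is expressed as visually scored percent injury, where 0% means no difference from untreated controls and 100% means dead plants, assessed about 3 weeks after a foliar spray at 600 L/ha with 0.5% additive on one-leaf-stage pot plants in sandy loam.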

Zea mays [2] = assay: Crop compatibility pre-emergence (greenhouse pot trial); conditions: effect vs untreated controls
In short: (§2)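 Compounds, formulated as WP or EC plus 0.5% additive, applied to covering soil after sowing at a water rate of 600 L/ha. After roughly 3 weeks under greenhouse conditions, visual % injury to crops rated against untreated plants, 0% meaning like control.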

Oryza sativa [3] = assay: as above; conditions: effect vs untreated controls
In short: as §2

Abutilon theophrasti [4] = assay: Herbicidal action post-emergence (greenhouse pot trial); conditions: scored visually after about 3 weeks vs untreated controls
In short: (§3)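 Visual efficacy score after ~3 wk in greenhouse vs untreated control; 100% = plants dead, 0% = like control. Spray: aqueous suspension/emulsion of WP or EC, 0.5% additive, 600 L/ha water, ≤80 g/ha. Plants in sandy loam pots, treated at one-leaf stage, 2–3 wk post-sowing.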

Stellaria media [5] = assay: as above; conditions: scored visually after about 3 weeks vs untreated controls
In short: as §3

Amaranthus retroflexus [6] = assay: as above; conditions: scored visually after about 3 weeks vs untreated controls
In short: as §3

Setaria viridis [7] = assay: as above; conditions: scored visually after about 3 weeks vs untreated controls
In short: as §3

Pharbitis purpurea [8] = assay: as above; conditions: application rate 80 g/ha
In short: as §3

Echinochloa crus-galli [9] = assay: as above; conditions: scored visually after about 3 weeks vs untreated controls
In short: as §3

Viola tricolor [10] = assay: as above
In short: as §3

Alopecurus myosuroides [11] = assay: as above; conditions: application rate 80 g/ha, scored visually after about 3 weeks vs untreated controls
In short: as §3

Avena fatua [12] = assay: as above; conditions: application rate 80 g/ha, scored visually after about 3 weeks vs untreated controls
In short: as §3

Matricaria inodora [13] = assay: as above; conditions: scored visually after about 3 weeks vs untreated controls
In short: as §3

Veronica persica [14] = assay: as above
In short: as §3

Polygonum convolvulus = assay: as above; conditions: scored visually after about 3 weeks vs untreated controls
In short: as §3

Abutilon theophrasti [15] = assay: Herbicidal action pre-emergence (greenhouse pot trial); conditions: application rate 320 g/ha, scored after about 3 weeks
In short: (§4)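 Efficacy scored visually as percent of untreated control (0% = like control, 100% = dead) roughly 3 weeks after treatment. Compounds, as WP or EC plus 0.5% additive in 600 L/ha water, were applied at up to 320 g/ha to soil surface covering freshly sown seeds.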

Stellaria media [16] = assay: as above; conditions: application rate 320 g/ha, scored after about 3 weeks
In short: as §4

Amaranthus retroflexus [17] = assay: as above; conditions: application rate 320 g/ha, scored after about 3 weeks
In short: as §4

Setaria viridis [18] = assay: as above; conditions: application rate 320 g/ha, scored after about 3 weeks
In short: as §4

Pharbitis purpurea [19] = assay: as above; conditions: application rate 320 g/ha
In short: as §4

Echinochloa crus-galli [20] = assay: as above; conditions: application rate 320 g/ha, scored after about 3 weeks
In short: as §4

Viola tricolor [21] = assay: as above; conditions: application rate 320 g/ha, scored after about 3 weeks
In short: as §4

Alopecurus myosuroides [22] = assay: as above; conditions: application rate 320 g/ha, scored after about 3 weeks
In short: as §4

Avena fatua [23] = assay: as above; conditions: application rate 320 g/ha
In short: as §4

Matricaria inodora [24] = assay: as above; conditions: application rate 320 g/ha, scored after about 3 weeks
In short: as §4

Veronica persica [25] = assay: as above; conditions: application rate 320 g/ha
In short: as §4

Triticum aestivum = assay: Crop compatibility post-emergence (greenhouse pot trial); conditions: application rate 20 g/ha
In short: as §1

Oryza sativa [26] = assay: as above
In short: as §1

Glycine max [27] = assay: as above
In short: as §1

Glycine max [28] = assay: Crop compatibility pre-emergence (greenhouse pot trial); conditions: effect vs untreated controls
In short: as §2

Lolium rigidum [29] = assay: Herbicidal action post-emergence (greenhouse pot trial); conditions: scored visually after about 3 weeks vs untreated controls
In short: as §3

Hordeum murinum = assay: Herbicidal action pre-emergence (greenhouse pot trial); conditions: application rate 320 g/ha
In short: as §4

Lolium rigidum [30] = assay: as above
In short: as §4

Cyperus esculentus = assay: as above; conditions: application rate 320 g/ha
In short: as §4

Row | SMILES | Zea mays (Efficacy in %) (Zea mays [1]; application rate 80 g/ha) | Abutilon theophrasti (Efficacy in %) (Abutilon theophrasti [4]; application rate 80 g/ha) | Stellaria media (Efficacy in %) (Stellaria media [5]; application rate 80 g/ha) | Amaranthus retroflexus (Efficacy in %) (Amaranthus retroflexus [6]; application rate 80 g/ha) | Setaria viridis (Efficacy in %) (Setaria viridis [7]; application rate 80 g/ha) | Pharbitis purpurea (Efficacy in %) (Pharbitis purpurea [8]) | Viola tricolor (Efficacy in %) (Viola tricolor [10]; application rate 80 g/ha) | Alopecurus myosuroides (Efficacy in %) (Alopecurus myosuroides [11]) | Matricaria inodora (Efficacy in %) (Matricaria inodora [13]; application rate 80 g/ha) | Abutilon theophrasti (Efficacy in %) (Abutilon theophrasti [15]) | Stellaria media (Efficacy in %) (Stellaria media [16]) | Amaranthus retroflexus (Efficacy in %) (Amaranthus retroflexus [17]) | Setaria viridis (Efficacy in %) (Setaria viridis [18]) | Pharbitis purpurea (Efficacy in %) (Pharbitis purpurea [19]) | Echinochloa crus-galli (Efficacy in %) (Echinochloa crus-galli [20]) | Viola tricolor (Efficacy in %) (Viola tricolor [21]) | Alopecurus myosuroides (Efficacy in %) (Alopecurus myosuroides [22]) | Avena fatua (Efficacy in %) (Avena fatua [23]) | Matricaria inodora (Efficacy in %) (Matricaria inodora [24]) | Veronica persica (Efficacy in %) (Veronica persica [25]) | also measured
1 | Cn1c(C(F)(F)F)cc(=O)n(-c2cc(SCC(=O)NCC3CCCO3)c(Cl)cc2F)c1=O (stereo not drawn) [I.8-271] | 20% | 100% | 100% | 100% | 100% | 100% | 100% | 100% | 100% | 100% | 90% | 100% | 100% | 100% | 80% | 100% | 90% | 90% | 100% | 100% | Zea mays (Efficacy in %) (Zea mays [2]; application rate 80 g/ha): 20%; Oryza sativa (Efficacy in %) (Oryza sativa [3]; application rate 80 g/ha): 0%; Echinochloa crus-galli (Efficacy in %) (Echinochloa crus-galli [9]; application rate 80 g/ha): 80%; Avena fatua (Efficacy in %) (Avena fatua [12]): 90%; Veronica persica (Efficacy in %) (Veronica persica [14]; application rate 80 g/ha): 100%; Polygonum convolvulus (Efficacy in %) (Polygonum convolvulus; application rate 80 g/ha): 100%
2 | CSCCNC(=O)C(C)Sc1cc(-n2c(=O)cc(C(F)(F)F)n(C)c2=O)c(F)cc1Cl (stereo not drawn) [I.1-181] | 20% | – | – | – | – | – | – | 80% | – | 100% | 100% | 100% | 100% | 100% | 100% | 100% | 100% | 100% | 100% | 100% | Triticum aestivum (Efficacy in %) (Triticum aestivum): 20%; Oryza sativa (Efficacy in %) (Oryza sativa [26]; application rate 80 g/ha): 10%; Glycine max (Efficacy in %) (Glycine max [27]; application rate 20 g/ha): 20%; Zea mays (Efficacy in %) (Zea mays [2]; application rate 20 g/ha): 0%; Oryza sativa (Efficacy in %) (Oryza sativa [3]; application rate 20 g/ha): 0%; Glycine max (Efficacy in %) (Glycine max [28]; application rate 80 g/ha): 20%; Abutilon theophrasti (Efficacy in %) (Abutilon theophrasti [4]; application rate 20 g/ha): 100%; Stellaria media (Efficacy in %) (Stellaria media [5]; application rate 20 g/ha): 100%; Amaranthus retroflexus (Efficacy in %) (Amaranthus retroflexus [6]; application rate 20 g/ha): 100%; Setaria viridis (Efficacy in %) (Setaria viridis [7]; application rate 20 g/ha): 100%; Echinochloa crus-galli (Efficacy in %) (Echinochloa crus-galli [9]; application rate 20 g/ha): 100%; Viola tricolor (Efficacy in %) (Viola tricolor [10]; application rate 20 g/ha): 100%; Lolium rigidum (Efficacy in %) (Lolium rigidum [29]; application rate 20 g/ha): 80%; Matricaria inodora (Efficacy in %) (Matricaria inodora [13]; application rate 20 g/ha): 100%; Veronica persica (Efficacy in %) (Veronica persica [14]; application rate 20 g/ha): 100%; Polygonum convolvulus (Efficacy in %) (Polygonum convolvulus; application rate 20 g/ha): 100%; Hordeum murinum (Efficacy in %) (Hordeum murinum): 90%; Lolium rigidum (Efficacy in %) (Lolium rigidum [30]; application rate 80 g/ha): 100%
3 | CC(Sc1cc(-n2c(=O)cc(C(F)(F)F)n(C)c2=O)c(F)cc1Cl)C(=O)NCC1(C)CCCO1 (stereo not drawn) [I.1-224] | 20% | 100% | 80% | 100% | 100% | 100% | 100% | 80% | 100% | 100% | 100% | 100% | 100% | 100% | 100% | 100% | 100% | 100% | 100% | 100% | Triticum aestivum (Efficacy in %) (Triticum aestivum): 20%; Oryza sativa (Efficacy in %) (Oryza sativa [26]; application rate 20 g/ha): 10%; Zea mays (Efficacy in %) (Zea mays [2]; application rate 20 g/ha): 0%; Oryza sativa (Efficacy in %) (Oryza sativa [3]; application rate 20 g/ha): 0%; Glycine max (Efficacy in %) (Glycine max [28]; application rate 20 g/ha): 0%; Veronica persica (Efficacy in %) (Veronica persica [14]; application rate 80 g/ha): 100%; Polygonum convolvulus (Efficacy in %) (Polygonum convolvulus; application rate 80 g/ha): 100%; Hordeum murinum (Efficacy in %) (Hordeum murinum): 100%; Lolium rigidum (Efficacy in %) (Lolium rigidum [30]; application rate 320 g/ha): 100%; Cyperus esculentus (Efficacy in %) (Cyperus esculentus): 90%
4 | CC(Sc1cc(-n2c(=O)cc(C(F)(F)F)n(C)c2=O)c(F)cc1Cl)C(=O)NCC1CCCO1 (stereo not drawn) [I.1-271] | – | 100% | 100% | 100% | 100% | 100% | 100% | 100% | 100% | 100% | 100% | 100% | 100% | 100% | 100% | 100% | 100% | 100% | 100% | 100% | Zea mays (Efficacy in %) (Zea mays [1]; application rate 20 g/ha): 10%; Triticum aestivum (Efficacy in %) (Triticum aestivum): 20%; Oryza sativa (Efficacy in %) (Oryza sativa [26]; application rate 20 g/ha): 10%; Glycine max (Efficacy in %) (Glycine max [27]; application rate 5 g/ha): 20%; Zea mays (Efficacy in %) (Zea mays [2]; application rate 20 g/ha): 0%; Oryza sativa (Efficacy in %) (Oryza sativa [3]; application rate 20 g/ha): 20%; Glycine max (Efficacy in %) (Glycine max [28]; application rate 20 g/ha): 10%; Echinochloa crus-galli (Efficacy in %) (Echinochloa crus-galli [9]; application rate 80 g/ha): 90%; Lolium rigidum (Efficacy in %) (Lolium rigidum [29]; application rate 80 g/ha): 100%; Veronica persica (Efficacy in %) (Veronica persica [14]; application rate 80 g/ha): 100%; Polygonum convolvulus (Efficacy in %) (Polygonum convolvulus; application rate 80 g/ha): 100%; Hordeum murinum (Efficacy in %) (Hordeum murinum): 100%; Lolium rigidum (Efficacy in %) (Lolium rigidum [30]; application rate 320 g/ha): 100%; Cyperus esculentus (Efficacy in %) (Cyperus esculentus): 80%

Reference: patent US11497212B2, “Substituted thiophenyl uracils, salts thereof and the use thereof as herbicidal agents” (Syngenta Crop Protection AG, priority 2017, dated 2022)
